According to ChEMBL document CHEMBL1130058, “Structure-cytoprotective activity relationship of simple molecules containing an alpha,beta-unsaturated carbonyl system” (1997):

Species on record: Rattus norvegicus
Experiment: Gastric cytoprotective activity in male wistar rat
Format: functional

`CC1=CC(=O)CC1` and `CC1=CC(=O)C(=C(C)C)CC1` are the same in Cytoprotective effect: 4.3 for the first, 4.3 for the second.

Going from `CC1CC(O)=CC(=O)O1` (centres undefined) to `O=C1C=CCCO1`, the Cytoprotective effect falls from 4.66 to 0.55.

First: O=C(O)/C=C/c1ccoc1
Second: O=C(O)/C=C/c1ccccc1 [CINNAMIC ACID]
The Cytoprotective effect of the first is lower: 4.6 for the first, 5 for the second.

`C/C=C(/C)C(=O)OC` and `C/C=C(\C)C(=O)OC` are the same in Cytoprotective effect: 5 for the first, 5 for the second.

Going from `COC(=O)C=C(C)C` to `C=C(C)C(=O)OC`, the Cytoprotective effect rises from 4.5 to 4.8.

Compared with `C/C=C(\C)C(=O)OCC`, `C/C=C(\C)C(=O)O` is higher in Cytoprotective effect: 4.8 for the first, 5 for the second.

First: COc1cc2c(c3oc(=O)ccc13)OCO2
Second: COc1cc2ccc(=O)oc2c(O)c1O [FRAXETIN]
The Cytoprotective effect of the first is lower: 4.2 for the first, 4.75 for the second.

First: C=C(C=O)C1CCC(C)(O)CC1 (centres undefined)
Second: C=C(C=O)C1CC=C(C)CC1 (centres undefined)
The Cytoprotective effect of the first is lower: 0.7 for the first, 0.9 for the second.

First: CCOC(=O)CC(=O)c1ccoc1
Second: C=CC(=O)OCC [ACRYLIC ACID ETHYL ESTER]
The Cytoprotective effect of the first is higher: 4.75 for the first, 4.3 for the second.

Compared with `O=C1C=CCC1`, `C=C1CCOC1=O` [TULIPALINE A] is lower in Cytoprotective effect: 1.3 for the first, 0.25 for the second.

Compared with `C/C=C(/C)C(=O)O`, `C/C=C(\C)C=O` [2-methyl-(E)-2-butenal] is higher in Cytoprotective effect: 3.5 for the first, 4.6 for the second.

First: O=c1cc(O)c2ccccc2o1 [4-HYDROXYCOUMARINS]
Second: O=c1ccc2ccccc2o1 [COUMARIN]
The Cytoprotective effect of the first is lower: 4.62 for the first, 4.7 for the second.

First: C=CC#N [ACRYLONITRILE]
Second: C#CC(=O)OCC [PROPYNOIC ACID ETHYL ESTER]
The Cytoprotective effect of the first is higher: 3.5 for the first, 0.43 for the second.

First: O=C/C=C/c1ccccc1 [CINNAMALDEHYDE]
Second: COC(=O)/C=C/c1ccccc1 [E-METHYL CINNAMATE]
The Cytoprotective effect of the first is higher: 4.5 for the first, 2.9 for the second.

For `O=c1ccc2ccc(O)cc2o1` [UMBELLIFERONE], the Cytoprotective effect was 3.8.
